System: LNCaP-FGC tumor cells
Assay: Tumor growth inhibition in prostate cancer LNCaP model with AR mutation H875Y
Format: in vivo, mouse
Conditions: 75 mg/kg orally once daily, LNCaP-FGC subcutaneous tumors, Cmp. 1 compared with Cmp. 2, FIG. 2
Experimental: (R)-7-chloro-2-((1r,4R)-4-(3-methoxyazetidin-1-yl)cyclohexyl)-2,4-dimethyl-N-((6-methyl-4-(methylthio)-2-oxo-1,2-dihydropyridin-3-yl)methyl)benzo[d][1,3]dioxole-5-carboxamide and R—N-((4-methoxy-6-methyl-2-oxo-1,2-dihydropyridin-3-yl)methyl)-2-methyl-1-(1-(1-(2,2,2-trifluoroethyl)piperidin-4-yl)ethyl)-1H-indole-3-carboxamide were examined in a prostate cancer LNCaP Model with AR mutation H875Y.
A fixed dose of 75 mg/kg was used for both compounds. Each mouse was inoculated subcutaneously at the right flank with LNCaP-FGC tumor cells (10×10^6) in 0.1 ml of PBS mixed with RPMI-1640:Matrigel (50:50) for tumor development. The treatments started when the average tumor volume reached approximately 158 mm^3. The test articles were administered orally once daily. The tumor size was used for the calculation of tumor growth inhibition (TGI)=[1−(T1−T0)/(C1−C0)]×100, where C1=mean tumor volume of control mice at time t, T1=mean tumor volume of treated mice at time t, C0=mean tumor volume of control mice at time 0, and T0=mean tumor volume of treated mice at time 0].

## COC1CN([C@H]2CC[C@H]([C@@]3(C)Oc4c(Cl)cc(C(=O)NCc5c(SC)cc(C)[nH]c5=O)c(C)c4O3)CC2)C1 [Cmp. 1, (R)-7-chloro-2-((1r,4R)-4-(3-methoxyazetidin-1-yl)cyclohexyl)-2,4-dimethyl-N-((6-methyl-4-(methylthio)-2-oxo-1,2-dihydropyridin-3-yl)methyl)benzo[d][1,3]dioxole-5-carboxamide]
  tumor growth inhibition (TGI), relative tumor volume % reduction: more efficacious at tumor growth inhibition
Listed as (R)-7-chloro-2-(1r,4R)-4-(3-methoxyazetidin-1-yl)cyclohexyl)-2,4-dimethyl-N-((6)
  tumor growth inhibition (TGI), relative tumor volume % reduction: more efficacious
